From patent US20140140946A1, “SKIN PREPARATION COMPOSITION FOR EXTERNAL USE WITH EXCELLENT ANTIBACTERIAL AND ANTIFUNGAL EFFECTS” (priority 2010, published 2014) come the findings set out here.

Common to all, as to type: cell-based
Assay [1] has as its system Pityrosporum ovale (Malassezia furfur). Briefly: Growth of Pityrosporum ovale in Leeming & Notman medium. As to conditions: 32° C. for 3 days; FIG. 4; trisodium phosphate at pH 8.0. As for the experimental part:
Each of citric acid (pH 4.0), trisodium phosphate (TSP, pH 8.4) and citric acid+trisodium phosphate (pH 5.0) was added to Leeming & Notman medium of 1 L containing glucose 10 g, peptone 10 g, bile salts 8 g, yeast extract 2 g, glycerol monostearate 0.5 g, glycerol 10 ml and Tween 80 (1.5%) 15 ml, and 0.1 ml of Pityrosporum ovale (Malassezia furfur), which is a kind of fungi known for causing atopy, was injected to each group.

Assay [2] has as its system Peptostreptococcus asaccharolyticus (KTCC 3321). Briefly: Growth of Peptostreptococcus asaccharolyticus in Wilkins Chalgren Anaerobe Broth. As to conditions: citric acid 0.8 g, trisodium phosphate 1.85 g, pH 6.0. From the text:
(§1) The following control group is a broth not injected with the bacteria.

Assay [3] deals with S. salivarius (KCTC 3960). Briefly: Growth of S. salivarius in BHI broth. As to conditions: citric acid 0.4 g, trisodium phosphate 0.64 g, pH 6.0.
From the text: as §1

In assay [4] the test system is Streptococcus sanguinis. Briefly: Growth of Streptococcus sanguinis in BHI broth. As to conditions: citric acid 0.4 g, trisodium phosphate 0.64 g, pH 6.0.
From the text: as §1

The subject of assay [5] is Streptococcus mutans (KCTC 3065). The assay can be described thus: Growth of Streptococcus mutans in BHI broth. As to conditions: citric acid 0.4 g, trisodium phosphate 0.64 g, pH 6.0.
From the text: as §1

The test system of assay [6] is Streptococcus mitis (KCTC 3556). The assay can be described thus: Growth of Streptococcus mitis in BHI broth. As to conditions: citric acid 0.4 g, trisodium phosphate 0.64 g, pH 6.0.
From the text: as §1

For the compound `O=P([O-])([O-])[O-].[Na+].[Na+].[Na+]` [trisodium phosphate], the “growth of P. ovale” value in assay [1] was “significantly suppressed”.

Take HCl [Broth D]: the “Absorbance (OD)” value in assay [2] (4 hrs) was 0.005 OD; in assay [2] (8 hrs), 0.010 OD; in assay [2] (12 hrs), 0.002 OD; in assay [2] (16 hrs), 0.008 OD; in assay [3] (4 hrs), 0.011 OD; in assay [3] (6 hrs) it was 0.068 OD. The “Absorbance (OD)” value in assay [3] (8 hrs) is recorded as 0.167 OD; in assay [3] (10 hrs), 0.192 OD; in assay [3] (12 hrs), 0.224 OD; in assay [3] (14 hrs), 0.234 OD; in assay [3] (16 hrs), 0.319 OD; in assay [3] (18 hrs) it was 0.224 OD. In addition, the “Absorbance (OD)” value in assay [4] (4 hrs) came out at 0.018 OD; in assay [4] (6 hrs), 0.039 OD; in assay [4] (8 hrs), 0.118 OD; in assay [4] (10 hrs), 0.127 OD; in assay [4] (12 hrs), 0.283 OD; in assay [4] (14 hrs), 0.303 OD. Further, the “Absorbance (OD)” value in assay [4] (16 hrs) is reported as 0.203 OD; in assay [4] (18 hrs), 0.199 OD; in assay [5] (4 hrs), 0.032 OD; in assay [5] (6 hrs), 0.092 OD; in assay [5] (8 hrs), 0.141 OD; in assay [5] (10 hrs), 0.200 OD. Besides, the “Absorbance (OD)” value in assay [5] (12 hrs) is 0.244 OD; in assay [5] (14 hrs), 0.212 OD; in assay [5] (16 hrs), 0.235 OD; in assay [5] (18 hrs), 0.210 OD; in assay [6] (4 hrs), 0.054 OD; in assay [6] (6 hrs), 0.104 OD. Also, the “Absorbance (OD)” value in assay [6] (8 hrs) came out at 0.205 OD; in assay [6] (10 hrs) it was 0.244 OD; in assay [6] (12 hrs), 0.218 OD; in assay [6] (14 hrs), 0.127 OD; in assay [6] (16 hrs), 0.089 OD; in assay [6] (18 hrs), 0.092 OD. In addition, the “Growth observed (in words)” value is listed as “No change” in assay [2] (20 hrs), “No change” in assay [2] (24 hrs) and “Full growth” in assay [2] (56 hrs).
